Assay results: patent publication US11697639B2, “Quaternary ammonium salt compound, preparation method therefor and use thereof” (WEST CHINA HOSPITAL, SICHUAN UNIVERSITY, priority 2018, dated 2023)
Structures can show the parent of a compound that is named as a salt.

What was measured:
Assay type in all cases: in vivo
rat's sciatic nerve [1] = test: Rat sciatic nerve block, motor function by Postural Extensor Thrust (PET); details: 0.5 mL injected near sciatic nerve, test drugs 20 mmol/mL in distilled water, lidocaine 2%, levobupivacaine 0.75%
Protocol: (§1) For the dosage, the lidocaine group is 2% aqueous solution, the levobupivacaine group is 0.75% aqueous solution, and test drug groups are all distilled water solution at the concentration of 20 mmol/mL.
(§2) The injection volume for each rat or the control was 0.5 mL, which was guided by a nerve locator and injected near the rat's sciatic nerve. Using von Frey stimulator, the rats were stimulated the soles of the feet in the injected side, to observe the effect of local anesthesia. Meanwhile, Postural Extensor Thrust (PET) was used to evaluate the motor function of the rat: the rat was lifted vertically and the hindlimb in the injected side pedaled on the platform of the electronic balance. […] When the limb was completely paralyzed, the reading was the limb's own weight, about 20 g. If the measured value was more than half of the difference between the baseline and the limb weight, the motor function was regarded as recovery, and if the value was less than or equal to this difference, the motor function was regarded as loss.

rat's sciatic nerve [2] = test: Rat sciatic nerve block, sensory block tested with von Frey stimulator; details: 0.5 mL injected near sciatic nerve, test drugs 20 mmol/mL in distilled water, lidocaine 2%, levobupivacaine 0.75%; for Local anesthesia onset time (Median): 8 rats per group; for Time of sensory block (Median): von Frey
Protocol: as §1, §2

back skin of rat = test: Local anesthetic effect by subcutaneous infiltration in rat back skin (Von Frey 100 g); details: 0.5 mL in saline, compound 6 mmol/L, bupivacaine 23 mmol/L, 10 rats per compound
Protocol: After the back of rat weighing 250-300 g was shaved and disinfected, a circle with a diameter of about 1.5 cm was drawn on the side of the exposed back, and the circle is divided into 6 equal parts. […] Among the Von Frey fiber yarns, the one with a strength of 100 g was bound to the needle for local skin stimulation. One minute After the drug was injected, the above method was used to stimulate in 6 divisions. […] If back skin contraction was observed, the local anesthetic effect was considered as loss. […] Each compound was tested with 10 rats.

| SMILES | Time of motor block (Median) (rat's sciatic nerve [1]) | Local anesthesia onset time (Median) (rat's sciatic nerve [2]) | Time of sensory block (Median) (rat's sciatic nerve [2]) | Lasting time of local anesthesia (Median) (back skin of rat) | Local anesthesia onset time (Median) (back skin of rat) |
| --- | --- | --- | --- | --- | --- |
| CCC[N+](CC)(CCCCCCCCN1CCCCC1C(=O)Nc1c(C)cccc1C)CC(=O)Nc1c(C)cccc1C.[Br-] (stereo not shown) [example 17] | 17 h | 5 min | 24 h | – | – |
| CCC[N+](CC)(CCCCCCCN1CCCCC1C(=O)Nc1c(C)ccc(Cl)c1C)CC(=O)Nc1c(C)ccc(C#N)c1C.[Br-] (stereo not shown) [example 24] | 16 h | 1 min | 24 h | – | – |
| CCC[N+](CC)(CCCCCCCCN1CCCCC1C(=O)Nc1c(C)cccc1C)CC(=O)Nc1c(C)cccc1OC (stereo not shown) [example 7] | 10 h | 2 min | 28 h | 57 h | 1 min |
| CCC[N+](C)(CCCCCN1CCCCC1C(=O)Nc1c(C)ccc(C#N)c1C)CC(=O)Nc1c(C)cccc1C (stereo not shown) [example 8] | 18 h | 1 min | 24 h | 33 h | 1 min |
| CCCCN(C(=O)[C@@H]1CCCCN1CCCCCCC[N+](CC)(CCC)CC(=O)Nc1c(C)cccc1C)c1c(C)cccc1C.[Br-] (stereo partly shown) [example 23] | 28 h | 2 min | 35 h | – | – |
| CCC[N+](CC)(CCCCCN1CCCCC1C(=O)Nc1c(C)cccc1C)CC(=O)Nc1c(C)cc([N+](=O)[O-])cc1C (stereo not shown) [example 3] | 10 h | 1 min | 27 h | 37 h | 1 min |
| Br.CCC[N+](CC)(CCCN1CCCCC1C(=O)Nc1c(C)ccc(S)c1C)CC(=O)Nc1c(C)cc(O)cc1C.[Br-] (stereo not shown) [example 18] | 21 h | 1 min | 31 h | – | – |
| CCC[N+](CC)(CCCCCCCCN1CCCCC1C(=O)Nc1c(C)cccc1C)CC(=O)Nc1c(C)ccc(Br)c1C (stereo not shown) [example 11] | 11 h | 1 min | 34 h | 54 h | 1 min |
| CCC[N+](CC)(CCCCCCCCN1CCCC[C@@H]1C(=O)Nc1c(C)cccc1C)CC(=O)Nc1c(C)cccc1C.O=C(O)CC(O)(CC(=O)O)C(=O)O.[Br-] (stereo partly shown) [example 25] | 24 h | 5 min | 32 h | – | – |
| CCC[N+](CC)(CCCCCCCCN1CCCCC1C(=O)Nc1c(C)cccc1C)CC(=O)Nc1c(C)cccc1C.[Br-] (stereo not shown) [example 21] | 18 h | 1 min | 24 h | – | – |
| CC[N+](C)(CCCN1CCCCC1C(=O)Nc1c(C)cccc1C)CC(=O)Nc1c(C)ccc(Cl)c1C (stereo not shown) [example 6] | 19 h | 3 min | 30 h | 47 h | 1 min |
| CCC[N+](CC)(CCCCCCCCN1CCCC[C@H]1C(=O)Nc1c(C)cccc1C)CC(=O)Nc1c(C)cccc1C.[Br-] (stereo partly shown) [example 19] | 22 h | 1 min | 29 h | – | – |
| CCC[N+](CC)(CCCCCCCN1CCCC[C@@H]1C(=O)Nc1c(C)ccc(C(=O)O)c1C)CC(=O)Nc1c(C)ccc(OC)c1C.[Br-] (stereo partly shown) [example 28] | 18 h | 4 min | 26 h | – | – |
| CCC[N+](CC)(CCCCCCCCN1CCCCC1C(=O)Nc1c(C)cccc1C)CC(=O)Nc1c(C)ccc(Br)c1C (stereo not shown) [example 4] | 10 h | 1 min | 33 h | 44 h | 2 min |
| CCC[N+](CC)(CCCCN1C(C)CCCC1C(=O)Nc1c(C)cccc1C(C)C)CC(=O)Nc1c(C)cccc1C(C)C.[Br-] (stereo not shown) [example 20] | 20 h | 2 min | 25 h | – | – |
| CCC[N+](CC)(CCCCCCCCN1CCCC1C(=O)Nc1c(C)ccc(C#N)c1C)CC(=O)Nc1c(C)ccc(C(=O)OC)c1C.[Br-] (stereo not shown) [example 26] | 18 h | 3 min | 25 h | – | – |
| CC[N+](C)(CCCN1CCCCC1C(=O)Nc1c(C)cccc1C)CC(=O)Nc1c(C)cccc1C.O=C(O)c1ccccc1.[Br-] (stereo not shown) [example 14] | 18 h | 3 min | 32 h | – | – |
| CCC[N+](CC)(CCCN1CCCC[C@@H]1C(=O)Nc1c(C)ccc(C(=O)OC)c1C)CC(=O)Nc1c(C)ccc(N)c1C.O=C(O)C(O)C(O)C(=O)O.[Br-] (stereo partly shown) [example 30] | 19 h | 4 min | 28 h | – | – |
| CCC[N+](CC)(CCCCCCCCN1CCCCC1C(=O)Nc1c(C)cc(OC)cc1C)CC(=O)Nc1c(C)ccc([N+](=O)[O-])c1C.[Br-] (stereo not shown) [example 29] | 28 h | 1 min | 33 h | – | – |
| CCC[N+](CC)(CCCCCCCN1CCC(OC)C[C@@H]1C(=O)Nc1c(C)cccc1C)CC(=O)Nc1c(C)cccc1C.[Br-] (stereo partly shown) [example 22] | 18 h | 3 min | 29 h | – | – |
| CC[N+](C)(CCCN1CCCC[C@@H]1C(=O)Nc1c(C)cccc1C)CC(=O)Nc1c(C)cccc1C (stereo partly shown) [example 16] | 19 h | 1 min | 25 h | – | – |
| CCCCN1CCCC[C@H]1C(=O)Nc1c(C)cccc1C [Levobupivacaine Hydrochloride, reference compound] | 2.5 h | 1 min | 2.5 h | 7 h | 1 min |
| CCCC[N+](CC)(CCOCCN1CCCCC1C(=O)Nc1c(C)cccc1C)CC(=O)Nc1c(C)cccc1O (stereo not shown) [example 5] | 11 h | 6 min | 28 h | 68 h | 1 min |
| CC[N+](C)(CCCN(C)CC(=O)Nc1c(C)cccc1C)CC(=O)Nc1c(C)cccc1C (stereo not shown) [example 9] | 10 h | 5 min | 24 h | 28 h | 2 min |
| CC[N+](C)(CCCN1CCCCC1C(=O)Nc1c(C)cccc1C)CC(=O)Nc1c(C)cccc1C (stereo not shown) [example 1] | 18 h | 3 min | 24 h | 34 h | 1 min |
| CCC[N+](CC)(CCCCCCCCN1CCCCC1C(=O)Nc1c(C)cccc1C)CC(=O)Nc1c(C)cccc1C.Cl.[Br-] (stereo not shown) [example 15] | 25 h | 2 min | 38 h | – | – |
| CCC[N+](C)(CCCCCN1CCCCC1C(=O)Nc1c(C)cc(C)cc1C)CC(=O)Nc1c(C)cc(C#N)cc1C (stereo not shown) [example 13] | 17 h | 1 min | 25 h | 45 h | 1 min |
| CCCC[N+](CC)(CCCCCCN1CCCCC1C(=O)Nc1c(C)cc([N+](=O)[O-])cc1C)CC(=O)Nc1c(C)cc(C(=O)O)cc1C.[Br-] (stereo not shown) [example 27] | 22 h | 2 min | 28 h | – | – |
